Data taken from patent US20110319626A1 (BRADFORD PHARMA LIMITED, priority 2009, published 2011).

The molecules below were run against T1, HMG-CoA reductase (Homo sapiens, UniProt P04035) (assay: HMG-CoA Reductase assay kit (spectrophotometric NADPH absorbance at 340 nm)). Conditions: NADPH and HMG-CoA both 200 μM, inhibitor concentrations varied from 0 nM to 50 nM, 37° C.
T1 construct: oxidation of NADPH by the catalytic subunit of HMGR in the presence of the substrate HMG-CoA; purchased Sigma-Aldrich CS1090 (kit); H8789 (HMG-CoA reductase)
T1 sequence (P04035 340-888 limits assumed): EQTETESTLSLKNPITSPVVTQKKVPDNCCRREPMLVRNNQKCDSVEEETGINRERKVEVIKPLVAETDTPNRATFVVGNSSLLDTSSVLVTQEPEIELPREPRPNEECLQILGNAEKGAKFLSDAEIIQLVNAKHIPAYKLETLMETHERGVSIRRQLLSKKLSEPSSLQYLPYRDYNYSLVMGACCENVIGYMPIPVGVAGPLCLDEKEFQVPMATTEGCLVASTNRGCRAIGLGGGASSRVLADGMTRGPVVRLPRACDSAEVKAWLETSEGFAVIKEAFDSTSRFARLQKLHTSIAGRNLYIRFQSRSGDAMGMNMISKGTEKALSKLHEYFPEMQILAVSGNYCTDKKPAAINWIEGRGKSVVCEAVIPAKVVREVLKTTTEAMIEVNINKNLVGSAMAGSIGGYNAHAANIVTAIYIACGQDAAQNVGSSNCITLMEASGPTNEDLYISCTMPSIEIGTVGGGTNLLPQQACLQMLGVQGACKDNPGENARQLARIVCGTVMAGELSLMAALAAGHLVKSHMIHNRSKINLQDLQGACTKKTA
Assay type: biochemical
Protocol: All assays were carried out in a reaction buffer containing […] KxPO4 at pH 7.2, 1 mM EDTA, 500 mM KCl and 1 mg/ml BSA. The concentrations of NADPH and HMG-CoA were both 200 μM. […] Absorbance readings were then taken every 20 seconds for 600 seconds. […] After these were identified, assays were carried out varying their concentrations from 0 nM to 50 nM allowing IC50 values to be calculated.
This is illustrated in the following reaction scheme:
HMG-CoA+2NADPH+2H^+→mevalonate+2NADP^++CoA-SH
Add a buffer to all samples. • b. […] Add the reconstituted NADPH to all samples. • d. Add Substrate Solution (HMG-CoA) to all samples. • e. […] Mix the samples thoroughly.
3. The kinetics programme was started immediately.

Compound	IC50 [nM]
CCCOC1C[C@H](O)C[C@@H](CCn2c(-c3ccc(F)cc3)c(-c3ccccc3)c(C(=O)Nc3ccccc3)c2C(C)C)O1 (some centres unmarked)	< 1
CC(C)OC1C[C@H](OCc2ccccc2)C[C@@H](CCn2c(-c3ccc(F)cc3)c(-c3ccccc3)c(C(=O)Nc3ccccc3)c2C(C)C)O1 (some centres unmarked)	4
C=CCOC1C[C@H](OCc2ccccc2)C[C@@H](CCn2c(-c3ccc(F)cc3)c(-c3ccccc3)c(C(=O)Nc3ccccc3)c2C(C)C)O1 (some centres unmarked)	1

Results, then the molecule that gave them:

IC50 [nM]	Compound
3	CC(C)c1c(C(=O)Nc2ccccc2)c(-c2ccccc2)c(-c2ccc(F)cc2)n1CC[C@@H]1C[C@@H](O)CC(=O)O1
< 1	COC1C[C@H](OC(=O)c2cccnc2)C[C@@H](CCn2c(-c3ccc(F)cc3)c(-c3ccccc3)c(C(=O)Nc3ccccc3)c2C(C)C)O1 (some centres unmarked)
< 1	CC(C)c1c(C(=O)Nc2ccccc2)c(-c2ccccc2)c(-c2ccc(F)cc2)n1CC[C@@H]1C[C@@H](O)CC(OC2CCCCC2)O1 (some centres unmarked)
3	CC(C)c1c(C(=O)Nc2ccccc2)c(-c2ccccc2)c(-c2ccc(F)cc2)n1CC[C@@H]1C[C@@H](OCc2ccccc2)CC(OC(C)(C)C)O1 (some centres unmarked)
< 1	COc1ccc(OC2C[C@H](O)C[C@@H](CCn3c(-c4ccc(F)cc4)c(-c4ccccc4)c(C(=O)Nc4ccccc4)c3C(C)C)O2)c(OC)c1 (some centres unmarked)
